From patent US20180155757A1, “IDENTIFICATION OF BACTERIA THAT ARE RESISTANT TO CARBAPENEMS BY MEMBRANE IMPERVIOUSNESS” (BIOMÉRIEUX, priority 2015, published 2018)

Columns and labels:
Experiment in all cases: Etest MIC of indicator carbapenems on MH II agar without/with PMBN
Type in all cases: cell-based
[1] = system: E. cloacae 0901026 (KPC-2 producer)
Description: (§1) The determinations of antibiotic MIC were carried out on solid culture media with the Etest® method. To do this, Etest® strips (bioMérieux, France) were used: • Etest® Imipenem IM 32, and • Etest® Ertapenem ETP 32, and also solid culture media, differing from one another by virtue of their non-inhibitory concentrations of PMBN.
(§2) These solid culture media are prepared in Petri dishes (0=145 mm; V=50 ml) on a base of MH II Agar (Becton Dickinson®, United States), more or less supplemented with PMBN. The PMBN concentrations range from 0 up to concentrations equivalent to one fifth of the MIC of PMBN (⅕ MICPMBN).
(§3) Using a swab and the Retro C80™ rota-plater (bioMérieux, France), the culture media were inoculated with the bacteria, originating from an inoculum of 0.5 McFarland, prepared in 0.85% NaCl solution from colonies subcultured the day before on MH II agar.
(§4) The various Etest® strips are then deposited on the surface of the culture media. After 16 to 20 hours of incubation at 35° C., the MICS were read.
(§5) To do this, imipenem and ertapenem were used as indicator carbapenems. Non-inhibitory concentrations of PMBN, equivalent to concentrations of one tenth ( 1/10), one eighth (⅛) and one fifth (⅕) of the MIC of PMBN, were applied.

[2] = system: E. cloacae 1008073 (VIM-1 producer)
Description: as §1, §2, §3, §4, §5

[3] = system: E. cloacae 1008079 (IMP-1 producer)
Description: as §1, §2, §3, §4, §5

[4] = system: E. cloacae 1008096 (VIM-1 producer)
Description: as §1, §2, §3, §4, §5

[5] = system: E. coli 1008077 (VIM-1 producer)
Description: as §1, §2, §3, §4, §5

[6] = system: K. pneumoniae 0404024 (VIM-1 producer)
Description: as §1, §2, §3, §4, §5

[7] = system: K. pneumoniae 1108001 (KPC-2 producer)
Description: as §1, §2, §3, §4, §5

[8] = system: K. pneumoniae 1108006 (KPC-2 producer)
Description: as §1, §2, §3, §4, §5

[9] = system: K. pneumoniae 1108016 (VIM-1 producer)
Description: as §1, §2, §3, §4, §5

Row | SMILES | MIC ([1]; [PMBN] 0) [µg/mL] | MIC ([1]; [PMBN] MIC/5) [µg/mL] | MIC ([1]; [PMBN] MIC/8) [µg/mL] | MIC ([1]; [PMBN] MIC/10) [µg/mL] | MIC ([2]; [PMBN] 0) [µg/mL] | MIC ([2]; [PMBN] MIC/5) [µg/mL] | MIC ([2]; [PMBN] MIC/8) [µg/mL] | MIC ([2]; [PMBN] MIC/10) [µg/mL] | MIC ([3]; [PMBN] 0) [µg/mL] | MIC ([3]; [PMBN] MIC/5) [µg/mL] | MIC ([3]; [PMBN] MIC/8) [µg/mL] | MIC ([3]; [PMBN] MIC/10) [µg/mL] | MIC ([4]; [PMBN] 0) [µg/mL] | MIC ([4]; [PMBN] MIC/5) [µg/mL] | MIC ([4]; [PMBN] MIC/8) [µg/mL] | MIC ([4]; [PMBN] MIC/10) [µg/mL] | MIC ([5]; [PMBN] 0) [µg/mL] | MIC ([5]; [PMBN] MIC/5) [µg/mL] | MIC ([5]; [PMBN] MIC/8) [µg/mL] | MIC ([5]; [PMBN] MIC/10) [µg/mL] | other results
1 | C[C@@H](O)[C@H]1C(=O)N2C(C(=O)O)=C(S[C@@H]3CN[C@H](C(=O)Nc4cccc(C(=O)O)c4)C3)[C@H](C)[C@H]12 [ETP, ertapenem] | 16 | 8 | 32 | 32 | 2 | 1 | 1 | 1 | 4 | 8 | 8 | 8 | 4 | 4 | 4 | 4 | 8 | 4 | 4 | 4 | MIC ([6]; [PMBN] 0): 128 µg/mL; MIC ([6]; [PMBN] MIC/5): 16 µg/mL; MIC ([6]; [PMBN] MIC/8): 32 µg/mL; MIC ([6]; [PMBN] MIC/10): 32 µg/mL; MIC ([7]; [PMBN] 0): 16 µg/mL; MIC ([7]; [PMBN] MIC/5): 8 µg/mL; MIC ([7]; [PMBN] MIC/8): 8 µg/mL; MIC ([7]; [PMBN] MIC/10): 16 µg/mL; MIC ([8]; [PMBN] 0): 64 µg/mL; MIC ([8]; [PMBN] MIC/5): 256 µg/mL; MIC ([8]; [PMBN] MIC/8): 256 µg/mL; MIC ([8]; [PMBN] MIC/10): 256 µg/mL; MIC ([9]; [PMBN] 0): 1 µg/mL; MIC ([9]; [PMBN] MIC/5): 2 µg/mL; MIC ([9]; [PMBN] MIC/8): 4 µg/mL; MIC ([9]; [PMBN] MIC/10): 4 µg/mL
2 | C[C@@H](O)[C@H]1C(=O)N2C(C(=O)O)=C(SCCN=CN)C[C@H]12 [IM, imipenem] | 16 | 8 | 8 | 16 | 0.25 | 0.25 | 0.25 | 0.25 | 2 | 2 | 2 | 4 | 4 | 4 | 8 | 8 | 16 | 16 | 16 | 8 | MIC ([6]; [PMBN] 0): 64 µg/mL; MIC ([6]; [PMBN] MIC/5): 64 µg/mL; MIC ([6]; [PMBN] MIC/8): 64 µg/mL; MIC ([6]; [PMBN] MIC/10): 64 µg/mL; MIC ([7]; [PMBN] 0): 8 µg/mL; MIC ([7]; [PMBN] MIC/5): 4 µg/mL; MIC ([7]; [PMBN] MIC/8): 8 µg/mL; MIC ([7]; [PMBN] MIC/10): 8 µg/mL; MIC ([8]; [PMBN] 0): 32 µg/mL; MIC ([8]; [PMBN] MIC/5): 32 µg/mL; MIC ([8]; [PMBN] MIC/8): 64 µg/mL; MIC ([8]; [PMBN] MIC/10): 32 µg/mL; MIC ([9]; [PMBN] 0): 4 µg/mL; MIC ([9]; [PMBN] MIC/5): 4 µg/mL; MIC ([9]; [PMBN] MIC/8): 8 µg/mL; MIC ([9]; [PMBN] MIC/10): 8 µg/mL
